According to PubChem BioAssay AID2060501 (Molecular Pharmacology Branch, DTP, NCI, 2025):

Tested on: 282377-053-R-J1-PDC complex spheroids, viability
Experiment: Anticancer human tumor 282377-053-R-J1-PDC patient-derived colon adenocarcinoma cell line growth inhibition [GQUAD]
Details: for IC50: curve of first compound; for viability, T/C: stronger effect = lower value
Summary of the method: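 Tumor cells were grown as complex spheroids with HUVEC endothelial cells and mesenchymal stem cells as stroma. G-quadruplex stabilizers were combined with targeted agents over half-log dilutions from near the clinical Cmax, or from 10 microM.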

[1] = second compound 0.0316 µM, first compound 0.0316 µM
[2] = second compound 0.0316 µM, first compound 0.1 µM
[3] = second compound 0.0316 µM, first compound 0.316 µM
[4] = second compound 0.0316 µM, first compound 1 µM
[5] = second compound 0.0316 µM, first compound 3.16 µM
[6] = second compound 0.0316 µM, first compound 10 µM
[7] = second compound 0.1 µM, first compound 0.0316 µM
[8] = second compound 0.1 µM, first compound 0.1 µM
[9] = second compound 0.1 µM, first compound 0.316 µM
[10] = second compound 0.1 µM, first compound 1 µM
[11] = second compound 0.1 µM, first compound 3.16 µM
[12] = second compound 0.1 µM, first compound 10 µM
[13] = second compound 0.316 µM, first compound 0.0316 µM
[14] = second compound 0.316 µM, first compound 0.1 µM
[15] = second compound 0.316 µM, first compound 0.316 µM
[16] = second compound 0.316 µM, first compound 1 µM
[17] = second compound 0.316 µM, first compound 3.16 µM
[18] = second compound 0.316 µM, first compound 10 µM
[19] = second compound 1 µM, first compound 0.0316 µM
[20] = second compound 1 µM, first compound 0.1 µM
[21] = second compound 1 µM, first compound 0.316 µM
[22] = second compound 1 µM, first compound 1 µM
[23] = second compound 1 µM, first compound 3.16 µM
[24] = second compound 1 µM, first compound 10 µM
[25] = second compound 3.16 µM, first compound 0.0316 µM
[26] = second compound 3.16 µM, first compound 0.1 µM
[27] = second compound 3.16 µM, first compound 0.316 µM
[28] = second compound 3.16 µM, first compound 1 µM
[29] = second compound 3.16 µM, first compound 3.16 µM
[30] = second compound 3.16 µM, first compound 10 µM
[31] = second compound 10 µM, first compound 0.0316 µM
[32] = second compound 10 µM, first compound 0.1 µM
[33] = second compound 10 µM, first compound 0.316 µM
[34] = second compound 10 µM, first compound 1 µM
[35] = second compound 10 µM, first compound 3.16 µM
[36] = second compound 10 µM, first compound 10 µM
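Also: spheroids exposed to compounds for 7 days before readout.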
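For viability, T/C in this document: percent of vehicle DMSO control viability with 100% = untreated-like growth.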

## C=CC(=O)N1CCN(c2nc(=O)n(-c3c(C)ccnc3C(C)C)c3nc(-c4c(O)cccc4F)c(F)cc23)C(C)C1 (stereo not drawn) + Cc1cnc(CNC(=O)c2c(=O)c3ccc(N4CCCN(C)CC4)nc3n3c2sc2ccccc23)cn1
Second compound 0.0316 µM
  IC50: > 10 µM
Second compound 0.1 µM
  IC50: > 10 µM
Second compound 0.316 µM
  IC50: > 10 µM
Second compound 1 µM
  IC50: > 10 µM
Second compound 3.16 µM
  IC50: > 10 µM
Second compound 10 µM
  IC50: 3.74 µM
[1]
  viability, T/C: 129%
[2]
  viability, T/C: 116%
[3]
  viability, T/C: 115%
[4]
  viability, T/C: 116%
[5]
  viability, T/C: 103%
[6]
  viability, T/C: 100%
[7]
  viability, T/C: 119%
[8]
  viability, T/C: 91.7%
[9]
  viability, T/C: 115%
[10]
  viability, T/C: 122%
[11]
  viability, T/C: 110%
[12]
  viability, T/C: 94.1%
[13]
  viability, T/C: 89.8%
[14]
  viability, T/C: 98.9%
[15]
  viability, T/C: 102%
[16]
  viability, T/C: 98.3%
[17]
  viability, T/C: 103%
[18]
  viability, T/C: 90.8%
[19]
  viability, T/C: 77.2%
[20]
  viability, T/C: 64.2%
[21]
  viability, T/C: 74.7%
[22]
  viability, T/C: 80.4%
[23]
  viability, T/C: 76%
[24]
  viability, T/C: 57.4%
[25]
  viability, T/C: 60.2%
[26]
  viability, T/C: 51%
[27]
  viability, T/C: 63.2%
[28]
  viability, T/C: 53.6%
[29]
  viability, T/C: 61.9%
[30]
  viability, T/C: 53.6%
[31]
  viability, T/C: 52.2%
[32]
  viability, T/C: 40.8%
[33]
  viability, T/C: 58.4%
[34]
  viability, T/C: 56.6%
[35]
  viability, T/C: 56.9%
[36]
  viability, T/C: 33%

## CC[C@@]1(O)C(=O)OCc2c1cc1n(c2=O)Cc2cc3c(CN(C)C)c(O)ccc3nc2-1 + Cc1cnc(CNC(=O)c2c(=O)c3ccc(N4CCCN(C)CC4)nc3n3c2sc2ccccc23)cn1
Second compound 0.0316 µM
  IC50: > 0.316 µM
Second compound 0.1 µM
  IC50: > 0.316 µM
Second compound 0.316 µM
  IC50: > 0.316 µM
Second compound 1 µM
  IC50: 0.115 µM
Second compound 3.16 µM
  IC50: 0.0108 µM
Second compound 10 µM
  IC50: < 0.000999 µM
Second compound 0.0316 µM, first compound 0.000999 µM
  viability, T/C: 136%
Second compound 0.0316 µM, first compound 0.00316 µM
  viability, T/C: 115%
Second compound 0.0316 µM, first compound 0.00999 µM
  viability, T/C: 125%
[1]
  viability, T/C: 107%
Second compound 0.0316 µM, first compound 0.0999 µM
  viability, T/C: 79.7%
[3]
  viability, T/C: 66.7%
Second compound 0.1 µM, first compound 0.000999 µM
  viability, T/C: 110%
Second compound 0.1 µM, first compound 0.00316 µM
  viability, T/C: 116%
Second compound 0.1 µM, first compound 0.00999 µM
  viability, T/C: 89.5%
[7]
  viability, T/C: 90.9%
Second compound 0.1 µM, first compound 0.0999 µM
  viability, T/C: 84.2%
[9]
  viability, T/C: 73.1%
Second compound 0.316 µM, first compound 0.000999 µM
  viability, T/C: 96.3%
Second compound 0.316 µM, first compound 0.00316 µM
  viability, T/C: 87.3%
Second compound 0.316 µM, first compound 0.00999 µM
  viability, T/C: 86.4%
[13]
  viability, T/C: 88.6%
Second compound 0.316 µM, first compound 0.0999 µM
  viability, T/C: 71%
[15]
  viability, T/C: 57.7%
Second compound 1 µM, first compound 0.000999 µM
  viability, T/C: 72.4%
Second compound 1 µM, first compound 0.00316 µM
  viability, T/C: 66.6%
Second compound 1 µM, first compound 0.00999 µM
  viability, T/C: 58.3%
[19]
  viability, T/C: 50.9%
Second compound 1 µM, first compound 0.0999 µM
  viability, T/C: 53.1%
[21]
  viability, T/C: 47.5%
Second compound 3.16 µM, first compound 0.000999 µM
  viability, T/C: 54.1%
Second compound 3.16 µM, first compound 0.00316 µM
  viability, T/C: 56.6%
Second compound 3.16 µM, first compound 0.00999 µM
  viability, T/C: 50.1%
[25]
  viability, T/C: 41.8%
Second compound 3.16 µM, first compound 0.0999 µM
  viability, T/C: 51.3%
[27]
  viability, T/C: 47.3%
Second compound 10 µM, first compound 0.000999 µM
  viability, T/C: 46.1%
Second compound 10 µM, first compound 0.00316 µM
  viability, T/C: 50.2%
Second compound 10 µM, first compound 0.00999 µM
  viability, T/C: 49.8%
[31]
  viability, T/C: 49.2%
Second compound 10 µM, first compound 0.0999 µM
  viability, T/C: 43.3%
[33]
  viability, T/C: 48.6%

## COc1cc(C2c3cc4c(cc3C(OC3OC5COC(C)OC5C(O)C3O)C3COC(=O)C23)OCO4)cc(OC)c1O (stereo not drawn) + Cc1cnc(CNC(=O)c2c(=O)c3ccc(N4CCCN(C)CC4)nc3n3c2sc2ccccc23)cn1
Second compound 0.0316 µM
  IC50: > 10 µM
Second compound 0.1 µM
  IC50: 9.72 µM
Second compound 0.316 µM
  IC50: > 10 µM
Second compound 1 µM
  IC50: > 10 µM
Second compound 3.16 µM
  IC50: 0.979 µM
Second compound 10 µM
  IC50: 0.337 µM
[1]
  viability, T/C: 127%
[2]
  viability, T/C: 95%
[3]
  viability, T/C: 126%
[4]
  viability, T/C: 90%
[5]
  viability, T/C: 68.3%
[6]
  viability, T/C: 50.8%
[7]
  viability, T/C: 109%
[8]
  viability, T/C: 91.3%
[9]
  viability, T/C: 107%
[10]
  viability, T/C: 76.1%
[11]
  viability, T/C: 72.7%
[12]
  viability, T/C: 48.6%
[13]
  viability, T/C: 103%
[14]
  viability, T/C: 91.9%
[15]
  viability, T/C: 87.1%
[16]
  viability, T/C: 68.8%
[17]
  viability, T/C: 66.4%
[18]
  viability, T/C: 50.9%
[19]
  viability, T/C: 70.7%
[20]
  viability, T/C: 51.3%
[21]
  viability, T/C: 70.2%
[22]
  viability, T/C: 63%
[23]
  viability, T/C: 62.7%
[24]
  viability, T/C: 41.6%
[25]
  viability, T/C: 60.5%
[26]
  viability, T/C: 57.5%
[27]
  viability, T/C: 49.8%
[28]
  viability, T/C: 48.5%
[29]
  viability, T/C: 52.1%
[30]
  viability, T/C: 37.4%
[31]
  viability, T/C: 45.4%
[32]
  viability, T/C: 49.7%
[33]
  viability, T/C: 56.3%
[34]
  viability, T/C: 49.1%
[35]
  viability, T/C: 42.1%
[36]
  viability, T/C: 26.3%

## Cc1cccc(N(C)C(=O)C2C(O)CCN2c2nc(C)cc(C(F)(F)F)c2C#N)c1 (stereo not drawn) + Cc1cnc(CNC(=O)c2c(=O)c3ccc(N4CCCN(C)CC4)nc3n3c2sc2ccccc23)cn1
Second compound 0.0316 µM
  IC50: > 10 µM
Second compound 0.1 µM
  IC50: > 10 µM
Second compound 0.316 µM
  IC50: > 10 µM
Second compound 1 µM
  IC50: > 10 µM
Second compound 3.16 µM
  IC50: > 10 µM
Second compound 10 µM
  IC50: 1.25 µM
[1]
  viability, T/C: 114%
[2]
  viability, T/C: 105%
[3]
  viability, T/C: 108%
[4]
  viability, T/C: 80.3%
[5]
  viability, T/C: 95.1%
[6]
  viability, T/C: 93.1%
[7]
  viability, T/C: 96.1%
[8]
  viability, T/C: 99.3%
[9]
  viability, T/C: 95.5%
[10]
  viability, T/C: 88%
[11]
  viability, T/C: 88.8%
[12]
  viability, T/C: 93.6%
[13]
  viability, T/C: 95%
[14]
  viability, T/C: 85.6%
[15]
  viability, T/C: 98.8%
[16]
  viability, T/C: 77%
[17]
  viability, T/C: 93.4%
[18]
  viability, T/C: 79.7%
[19]
  viability, T/C: 66.3%
[20]
  viability, T/C: 60.6%
[21]
  viability, T/C: 64.1%
[22]
  viability, T/C: 60.3%
[23]
  viability, T/C: 65.9%
[24]
  viability, T/C: 67.1%
[25]
  viability, T/C: 54.6%
[26]
  viability, T/C: 51%
[27]
  viability, T/C: 56.2%
[28]
  viability, T/C: 58.8%
[29]
  viability, T/C: 56.6%
[30]
  viability, T/C: 58.5%
[31]
  viability, T/C: 50.6%
[32]
  viability, T/C: 53.6%
[33]
  viability, T/C: 50.6%
[34]
  viability, T/C: 52.2%
[35]
  viability, T/C: 46.4%
[36]
  viability, T/C: 35.5%
